Assay results as given in ChEMBL document CHEMBL1159090 (Bioorg Med Chem Lett, 2010).

What was measured:
[1] = target: 5-hydroxytryptamine receptor 2A (Homo sapiens, UniProt P28223); assay: Displacement of [3H]Ketanserin from human cloned 5HT2A receptor
Histamine H1 receptor = Histamine H1 receptor (Homo sapiens, UniProt P35367); assay: Displacement of [3H]Pyrilamine from human cloned histamine H1 receptor
Sequence of Histamine H1 receptor (P35367 whole entry): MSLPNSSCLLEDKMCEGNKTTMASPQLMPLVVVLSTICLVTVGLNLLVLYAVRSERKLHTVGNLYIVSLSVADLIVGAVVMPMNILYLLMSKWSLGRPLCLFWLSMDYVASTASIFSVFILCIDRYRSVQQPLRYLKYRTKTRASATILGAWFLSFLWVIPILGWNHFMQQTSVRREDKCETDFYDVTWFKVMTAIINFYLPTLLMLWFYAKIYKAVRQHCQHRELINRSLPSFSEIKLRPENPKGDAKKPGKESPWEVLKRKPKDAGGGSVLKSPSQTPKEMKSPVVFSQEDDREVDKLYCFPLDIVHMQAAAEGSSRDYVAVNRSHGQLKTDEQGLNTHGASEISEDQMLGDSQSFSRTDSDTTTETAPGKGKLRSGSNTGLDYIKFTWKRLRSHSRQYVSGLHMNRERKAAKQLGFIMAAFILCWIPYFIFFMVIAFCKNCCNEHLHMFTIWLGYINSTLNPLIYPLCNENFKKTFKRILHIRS

Sequence of 5-hydroxytryptamine receptor 2A (P28223 whole entry): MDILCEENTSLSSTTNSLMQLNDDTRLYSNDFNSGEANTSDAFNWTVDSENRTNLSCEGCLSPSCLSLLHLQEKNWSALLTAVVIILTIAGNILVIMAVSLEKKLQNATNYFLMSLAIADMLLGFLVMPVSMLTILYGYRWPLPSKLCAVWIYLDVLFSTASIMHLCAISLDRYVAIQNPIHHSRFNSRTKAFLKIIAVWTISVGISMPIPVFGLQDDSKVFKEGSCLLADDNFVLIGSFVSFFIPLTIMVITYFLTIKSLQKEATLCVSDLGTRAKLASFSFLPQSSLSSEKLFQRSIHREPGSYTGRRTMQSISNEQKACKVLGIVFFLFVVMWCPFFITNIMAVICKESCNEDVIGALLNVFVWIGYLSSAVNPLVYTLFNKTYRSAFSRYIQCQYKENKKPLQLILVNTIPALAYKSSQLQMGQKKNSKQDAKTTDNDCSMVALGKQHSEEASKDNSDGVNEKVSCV

| SMILES | Ki [1] [nM] | Ki (Histamine H1 receptor) [nM] |
| --- | --- | --- |
| c1ccc(CCCCNCC2c3ccccc3Cc3ccccc32)cc1 | 365 | 964 |
| c1ccc(CCCNCC2c3ccccc3Cc3ccccc32)cc1 | 223 | 725 |
| c1ccc(CCNCC2c3ccccc3Cc3ccccc32)cc1 | 400 | 242 |
| COc1ccc2c3c(ccc2c1)Cc1ccccc1C3CN (stereo not drawn) | 21 | 2640 |
